# Laboratory results published in patent US8722849B2, “Polypeptides” (Novo Nordisk A/S, priority 2011, dated 2014).
# Read-outs that look alike come from different tables or passages of the source. Starred links: 1 amine or outer side, 2 acyl side, 3 side chain; linkers in the order of their positions; H or OH if unused. Positions of bridges follow the written chain, without caps; N, C: chain ends. Residues, ends and D or L forms follow the SMILES beside them. Groups on a side chain read outwards from the residue. *: point of attachment. C20 diacid = O=C(O)CCCCCCCCCCCCCCCCCCC(=O)*; C18 diacid = O=C(O)CCCCCCCCCCCCCCCCC(=O)*; γGlu = O=C(O)[C@H](CCC(=O)[*:2])N[*:1]; AEEA = NCCOCCOCC(=O)O
# Key:
# [1] = biological target: T1, human calcitonin receptor (Homo sapiens, UniProt P30988); experiment: Assay (II)a functional CRE-luciferase assay, human calcitonin receptor; format: cell-based; conditions: Table 7; human calcitonin (CTa) receptor
# T1 construct: expressed in transfected cells; host or cells: BHK570
# T1 sequence (P30988 25-474): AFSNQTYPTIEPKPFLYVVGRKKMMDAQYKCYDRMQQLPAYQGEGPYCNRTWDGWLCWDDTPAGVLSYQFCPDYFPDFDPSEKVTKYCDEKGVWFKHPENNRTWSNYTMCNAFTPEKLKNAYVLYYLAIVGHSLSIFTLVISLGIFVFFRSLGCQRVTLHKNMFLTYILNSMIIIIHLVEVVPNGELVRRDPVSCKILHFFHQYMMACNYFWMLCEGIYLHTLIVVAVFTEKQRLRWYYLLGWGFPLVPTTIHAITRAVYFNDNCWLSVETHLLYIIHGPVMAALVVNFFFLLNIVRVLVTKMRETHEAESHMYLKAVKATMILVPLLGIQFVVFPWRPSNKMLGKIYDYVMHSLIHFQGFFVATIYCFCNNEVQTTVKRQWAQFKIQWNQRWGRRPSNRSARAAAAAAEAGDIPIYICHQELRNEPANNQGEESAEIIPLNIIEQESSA
# [2] = biological target: T2, rat amylin 3(a) receptor (rat calcitonin(a) receptor + rat RAMP3) (Rattus norvegicus, UniProt P32214+Q9JJ73); experiment: Assay (II)b functional cAMP FlashPlate assay, rat amylin receptor; format: cell-based; conditions: Table 11
# T2 construct: expressed in transfected cells; host or cells: BHK tk'ts 13
# T2 sequence (P32214 25-479 isoform P32214-2 limits assumed): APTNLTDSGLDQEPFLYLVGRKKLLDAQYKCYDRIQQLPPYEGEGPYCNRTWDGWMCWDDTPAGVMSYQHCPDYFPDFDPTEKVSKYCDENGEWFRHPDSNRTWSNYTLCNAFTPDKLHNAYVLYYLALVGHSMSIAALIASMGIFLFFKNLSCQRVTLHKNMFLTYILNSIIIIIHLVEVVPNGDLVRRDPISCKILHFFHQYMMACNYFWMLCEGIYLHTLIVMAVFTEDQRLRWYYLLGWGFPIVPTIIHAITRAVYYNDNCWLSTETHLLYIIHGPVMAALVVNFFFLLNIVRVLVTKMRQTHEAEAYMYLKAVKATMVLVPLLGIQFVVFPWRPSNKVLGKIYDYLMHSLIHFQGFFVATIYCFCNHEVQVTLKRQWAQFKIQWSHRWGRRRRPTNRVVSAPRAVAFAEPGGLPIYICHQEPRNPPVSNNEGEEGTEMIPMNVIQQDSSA
# T2 sequence (Q9JJ73 23-147 partner): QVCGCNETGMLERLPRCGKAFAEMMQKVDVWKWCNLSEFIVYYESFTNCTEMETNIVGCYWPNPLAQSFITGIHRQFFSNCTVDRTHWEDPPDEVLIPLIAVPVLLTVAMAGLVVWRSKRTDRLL
# Outline: (§1)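 BHK tk'ts 13 cells transiently transfected with rat calcitonin(a) receptor, alone or with rat RAMP3 (amylin 3(a)), were stimulated 24 hours later with sample for 30 min in buffer containing IBMX. cAMP measured by competitive radioactive FlashPlate assay, scintillation read after 3 h detection incubation.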
# [3] = biological target: T3, rat calcitonin (a) receptor (Rattus norvegicus, UniProt P32214); experiment: Assay (II)b functional cAMP FlashPlate assay, rat calcitonin receptor; format: cell-based; conditions: Table 11; read-out: CTa receptor rat EC50
# T3 construct: expressed in transfected cells; host or cells: BHK tk'ts 13
# T3 sequence (P32214 25-479 isoform P32214-2 limits assumed): T2 sequence (P32214 25-479 isoform P32214-2 limits assumed)
# Outline: as §1
# [4] = Assay (IV) determination of solubility; format: physicochemical
# Outline: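 Polypeptide in water (~500 nmol/ml stock) was mixed 1:1 with 100 mM buffers from pH 3.0 to 8.0 (glycylglycine pH 3.0–5.0; bistrispropane pH 6.0–8.0). After 18 hours at room temperature, samples were centrifuged and the polypeptide remaining in solution was quantified by HPLC.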
# [5] = biological target: T4, human amylin receptor (amylin 3(a) receptor: human calcitonin receptor + RAMP-3) (Homo sapiens, UniProt O60896+P30988); experiment: Assay (II)a functional CRE-luciferase assay, human amylin receptor; format: cell-based; conditions: Table 2; BHK amylin 3(a)-receptor/CRE-luc cells
# T4 construct: expressed in transfected cells; host or cells: BHK570
# T4 sequence (P30988 25-474): T1 sequence (P30988 25-474)
# T4 sequence (O60896 24-148 partner): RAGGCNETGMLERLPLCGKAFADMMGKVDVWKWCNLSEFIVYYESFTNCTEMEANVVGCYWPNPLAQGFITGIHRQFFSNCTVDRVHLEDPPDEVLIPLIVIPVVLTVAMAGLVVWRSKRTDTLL
# [6] = bistrispropane buffer, pH 6, pH 6.0, read-out: Solubility pH 6.0
# [7] = bistrispropane buffer, pH 6.5, pH 6.5, read-out: Solubility pH 6.5
# [8] = bistrispropane buffer, pH 7, pH 7.0, read-out: Solubility pH 7.0
# [9] = bistrispropane buffer, pH 7.5, pH 7.5, read-out: Solubility pH 7.5
# [10] = bistrispropane buffer, pH 8, pH 8.0, read-out: Solubility pH 8.0
# [11] = glycylglycine buffer, pH 3, pH 3.0, read-out: Solubility pH 3.0
# [12] = glycylglycine buffer, pH 4, pH 4.0, 18 hours at room temperature, Table 2, read-out: Solubility pH 4.0
# [13] = glycylglycine buffer, pH 4, pH 4.0, read-out: Solubility pH 4.0
# [14] = glycylglycine buffer, pH 5, pH 5.0, read-out: Solubility pH 5.0
EC50 [1] [pM],EC50 [2] [pM],EC50 [3] [pM],"solubility at 18 h [4, 6] [µM]","solubility at 18 h [4, 7] [µM]","solubility at 18 h [4, 8] [µM]","solubility at 18 h [4, 9] [µM]","solubility at 18 h [4, 10] [µM]","solubility at 18 h [4, 11] [µM]","solubility at 18 h [4, 12] [µM]","solubility at 18 h [4, 13] [µM]","solubility at 18 h [4, 14] [µM]",EC50 [5] [pM],"solubility at 18 h ([4]; bistrispropane buffer, pH 7, pH 7.0, 18 hours at room temperature, Table 3, read-out: Solubility pH 7.0) [µM]","solubility at 18 h ([4]; bistrispropane buffer, pH 7, pH 7.0, Table 8, read-out: Solubility pH 7.0) [µM]","solubility at 18 h ([4]; pH 8.0, read-out: Solubility pH 8.0) [µM]",SMILES
210,305,656,> 200,155,46,77,144,> 200,> 200,> 200,> 200,182,,,,"CC[C@H](C)[C@H](NC(=O)[C@@H]1CCCN1C(=O)CNC(=O)[C@H](Cc1ccccc1)NC(=O)[C@H](CC(N)=O)NC(=O)[C@H](CC(N)=O)NC(=O)[C@H](CO)NC(=O)[C@H](CO)NC(=O)[C@H](Cc1c[nH]cn1)NC(=O)[C@H](Cc1c[nH]cn1)NC(=O)[C@H](CC(C)C)NC(=O)[C@H](Cc1ccccc1)NC(=O)[C@H](CCC(=O)O)NC(=O)[C@H](C)NC(=O)[C@H](CC(C)C)NC(=O)[C@H](CCCNC(=N)N)NC(=O)[C@H](CCC(N)=O)NC(=O)[C@@H](NC(=O)[C@H](C)NC(=O)[C@@H]1CSSC[C@H](NC(=O)[C@H](CCCCN)NC(=O)[C@H](Cc2c[nH]cn2)NC(=O)CC[C@H](NC(=O)CCCCCCCCCCCCCCCCCCC(=O)O)C(=O)O)C(=O)N[C@@H](CC(N)=O)C(=O)N[C@@H]([C@@H](C)O)C(=O)N[C@@H](C)C(=O)N[C@@H]([C@@H](C)O)C(=O)N1)[C@@H](C)O)C(=O)N[C@@H](CC(C)C)C(=O)N1CCC[C@H]1C(=O)N1CCC[C@H]1C(=O)N[C@H](C(=O)N[C@@H](CC(N)=O)C(=O)N[C@H](C(=O)NCC(=O)N[C@@H](CO)C(=O)N[C@@H](Cc1c[nH]cn1)C(=O)N[C@H](C(=O)N[C@@H](Cc1ccc(O)cc1)C(N)=O)[C@@H](C)O)C(C)C)[C@@H](C)O [Example 66, N-alpha-[(S)-4-Carboxy-4-(19-carboxynonadecanoylamino)butyryl]-His-[Glu14,His17,His35]-pramlintide] ({C20 diacid-γGlu}-HKCNTATCATQRLAEFLHHSSNNFGPILPPTNVGSHTY-NH2; disulfide 3-8 (inferred); C-terminus assumed)"
45,52,167,> 200,> 200,155,169,> 200,> 200,> 200,> 200,> 200,38.5,155,155,,"CC[C@H](C)[C@H](NC(=O)[C@H](CCCCNC(=O)COCCOCCNC(=O)COCCOCCNC(=O)CC[C@H](NC(=O)CCCCCCCCCCCCCCCCC(=O)O)C(=O)O)NC(=O)CNC(=O)[C@H](Cc1ccccc1)NC(=O)[C@H](CC(N)=O)NC(=O)[C@H](CC(N)=O)NC(=O)[C@H](CO)NC(=O)[C@H](CO)NC(=O)[C@H](Cc1c[nH]cn1)NC(=O)[C@H](Cc1c[nH]cn1)NC(=O)[C@H](CC(C)C)NC(=O)[C@H](Cc1ccccc1)NC(=O)[C@H](CCC(=O)O)NC(=O)[C@H](C)NC(=O)[C@H](CC(C)C)NC(=O)[C@H](CCCNC(=N)N)NC(=O)[C@H](CCC(N)=O)NC(=O)[C@@H](NC(=O)[C@H](C)NC(=O)[C@@H]1CSSC[C@H](NC(=O)[C@@H](N)CCCCN)C(=O)N[C@@H](CC(N)=O)C(=O)N[C@@H]([C@@H](C)O)C(=O)N[C@@H](C)C(=O)N[C@@H]([C@@H](C)O)C(=O)N1)[C@@H](C)O)C(=O)N[C@@H](CC(C)C)C(=O)N1CCC[C@H]1C(=O)N1CCC[C@H]1C(=O)N[C@H](C(=O)N[C@@H](CC(N)=O)C(=O)N[C@H](C(=O)NCC(=O)N[C@@H](CO)C(=O)N[C@@H](CC(N)=O)C(=O)N[C@H](C(=O)N[C@@H](Cc1ccc(O)cc1)C(N)=O)[C@@H](C)O)C(C)C)[C@@H](C)O [Example 73, N-epsilon25-[2-(2-{2-[2-(2-{2-[(S)-4-Carboxy-4-(17-carboxyheptadecanoylamino)butyrylamino]ethoxy}ethoxy)acetylamino]ethoxy}ethoxy)acetyl]-[Glu14,His17,Lys25]-pramlintide] (H-KCNTATCATQRLAEFLHHSSNNFGK([AEEA-AEEA-γGlu-C18 diacid])ILPPTNVGSNTY-NH2; disulfide 2-7 (inferred); N-terminus and C-terminus assumed)"
429,133,1340,> 200,87,,,,> 200,> 200,> 200,> 200,192,,,1,"CC[C@H](C)[C@H](NC(=O)[C@@H]1CCCN1C(=O)CNC(=O)[C@H](Cc1ccccc1)NC(=O)[C@H](CC(N)=O)NC(=O)[C@H](CC(N)=O)NC(=O)[C@H](CO)NC(=O)[C@H](CO)NC(=O)[C@H](Cc1c[nH]cn1)NC(=O)[C@H](Cc1c[nH]cn1)NC(=O)[C@H](CC(C)C)NC(=O)[C@H](Cc1ccccc1)NC(=O)[C@H](CCC(=O)O)NC(=O)[C@H](C)NC(=O)[C@H](CC(C)C)NC(=O)[C@H](CCCNC(=N)N)NC(=O)[C@H](CCC(N)=O)NC(=O)[C@@H](NC(=O)[C@H](C)NC(=O)[C@@H]1CSSC[C@H](NC(=O)[C@H](Cc2c[nH]cn2)NC(=O)[C@H](Cc2c[nH]cn2)NC(=O)[C@H](Cc2c[nH]cn2)NC(=O)CC[C@H](NC(=O)CCCCCCCCCCCCCCCCCCC(=O)O)C(=O)O)C(=O)N[C@@H](CC(N)=O)C(=O)N[C@@H]([C@@H](C)O)C(=O)N[C@@H](C)C(=O)N[C@@H]([C@@H](C)O)C(=O)N1)[C@@H](C)O)C(=O)N[C@@H](CC(C)C)C(=O)N1CCC[C@H]1C(=O)N1CCC[C@H]1C(=O)N[C@H](C(=O)N[C@@H](CC(N)=O)C(=O)N[C@H](C(=O)NCC(=O)N[C@@H](CO)C(=O)N[C@@H](CCCNC(=N)N)C(=O)N[C@H](C(=O)N[C@@H](Cc1ccc(O)cc1)C(N)=O)[C@@H](C)O)C(C)C)[C@@H](C)O [Example 21, N-alpha-[(S)-4-Carboxy-4-(19-carboxynonadecanoylamino)butyryl]-His-His-[His1,Glu14,His17,Arg35]-pramlintide] ({C20 diacid-γGlu}-HHHCNTATCATQRLAEFLHHSSNNFGPILPPTNVGSRTY-NH2; disulfide 4-9 (inferred))"
